Experimental data reported in ChEMBL document CHEMBL1152354, “Design, synthesis and identification of novel colchicine-derived immunosuppressant” (Bioorg Med Chem Lett, 2009).
pIC50: −log10 of the molar value. The source made the active and inactive calls. The rule behind the calls is not given here.

Columns and labels:
[1] = test system: Splenocyte; experiment: Immunosuppressive activity in splenocytes assessed as inhibition of mixed lymphocyte reaction; assay type: functional, cell-based; conditions: for pIC50: Mus musculus, Splenocyte, read-out: IC50
[2] = test system: Splenocyte; experiment: Immunosuppressive activity in mouse splenocytes assessed as inhibition of allogenic mixed lymphocyte reaction; assay type: functional, cell-based
[3] = Immunosuppressive activity in LPS-activated B lymphocyte assessed as inhibition of lymphoproliferation after 3 days by beta-scintillation counting; assay type: functional
[4] = test system: RAW264.7; experiment: Cytotoxicity against mouse RAW264.7 cells at 0.01 to 10 uM; assay type: cell-based; conditions: raw264.7, 10 µM
[5] = Immunosuppressive activity in concanavalin A-activated T cell assessed as inhibition of lymphoproliferation after 3 days by beta-scintillation counting; assay type: functional, cell-based
[6] = test system: Mus musculus; experiment: Immunosuppressive activity in BALB/c mouse skin allografted C57BL/6 mouse assessed as survival of allograft skin at 1 mg/kg, ip administered daily; assay type: functional; conditions: route intraperitoneal
[7] = test system: RAW264.7; experiment: Immunosuppressive activity in mouse RAW264.7 cells assessed as inhibition of LPS-induced NO production; assay type: functional, cell-based
[8] = test system: RAW264.7; experiment: Immunosuppressive activity in mouse RAW264.7 cells assessed as inhibition of LPS-induced iNOS expression at 0.01 to 10 uM; assay type: functional, cell-based
[9] = test system: RAW264.7; experiment: Immunosuppressive activity in mouse RAW264.7 cells assessed as inhibition of LPS-induced iNOS expression; assay type: functional, cell-based
[10] = test system: RAW264.7; experiment: Immunosuppressive activity in mouse RAW264.7 cells assessed as inhibition of LPS-induced NO production at 0.01 to 10 uM; assay type: functional, cell-based
[11] = test system: RAW264.7; experiment: Immunosuppressive activity in mouse RAW264.7 cells assessed as inhibition of LPS-induced TNFalpha expression level in at 0.01 to 10 uM; assay type: functional, cell-based
[12] = test system: Splenocyte; experiment: Ratio of IC50 of drug to IC50 of cyclosporin A for immunosuppressive activity in mouse splenocytes assessed as inhibition of allogenic mixed lymphocyte reaction; assay type: functional
[13] = Cytotoxicity against rat H42E cells assessed as alteration in mitochondrial function by MTT assay; assay type: cell-based; conditions: read-out: TC50 (the source's name)
[14] = Cytotoxicity against rat H42E cells assessed as intracellular ATP level; assay type: cell-based; conditions: read-out: TC50 (the source's name)
[15] = Antiproliferative activity against rat H42E cells assessed as cell number; assay type: cell-based
[16] = Cytotoxicity against rat H42E cells assessed as release of alpha-glutathione S transferase; assay type: cell-based; conditions: read-out: TC50 (the source's name)

SMILES | pIC50 [1] | pIC50 [2] | other results
COc1cc2c(c(OC)c1OC)-c1ccc(SC)c(=O)cc1[C@@H](NC(=O)c1ccc(Br)c(CO[N+](=O)[O-])c1)CC2 | 7.05 |  | 
COc1cc2c(c(OC)c1OC)-c1ccc(SC)c(=O)cc1[C@@H](NC(=O)c1cccc(CO[N+](=O)[O-])c1I)CC2 | 7.07 |  | 
COc1cc2c(c(OC)c1OC)-c1ccc(SC)c(=O)cc1[C@@H](NC(=O)c1cc(CO[N+](=O)[O-])ccc1-c1ccccc1)CC2 |  |  | IC50 ([1]; splenocyte): Not Active
COc1cc2c(c(OC)c1OC)-c1ccc(SC)c(=O)cc1[C@@H](NC(=O)CCCO[N+](=O)[O-])CC2 |  | 6.68 | pIC50 [3]: 9.00; Activity [4]: Non-toxic; pIC50 [5]: 6.24
COc1cc2c(c(OC)c1OC)-c1ccc(SC)c(=O)cc1[C@@H](NC(=O)c1cccc(CO[N+](=O)[O-])c1Br)CC2 | 7.21 |  | 
C/C=C/C[C@@H](C)[C@@H](O)[C@H]1C(=O)N[C@@H](CC)C(=O)N(C)CC(=O)N(C)[C@@H](CC(C)C)C(=O)N[C@@H](C(C)C)C(=O)N(C)[C@@H](CC(C)C)C(=O)N[C@@H](C)C(=O)N[C@H](C)C(=O)N(C)[C@@H](CC(C)C)C(=O)N(C)[C@@H](CC(C)C)C(=O)N(C)[C@@H](C(C)C)C(=O)N1C [CYCLOSPORINE] |  |  | Survival [6]: 11.8 days
COc1cc2c(c(OC)c1OC)-c1ccc(OC)c(=O)cc1[C@@H](NC(C)=O)CC2 [COLCHICINE] |  | 5.64 | pIC50 [3]: 8.14; pIC50 [5]: 6.26
COc1cc2c(c(OC)c1OC)-c1ccc(SC)c(=O)cc1[C@@H](NC(=O)c1cccc(CO[N+](=O)[O-])c1)CC2 | 7.17 | 7.15 | Activity [7]: Dose-dependent effect; inhibition [8]: inactive; pIC50 [3]: 9.00; Activity [4]: Non-toxic; Activity [9]: Dose-dependent effect; inhibition [10]: inactive; pIC50 [5]: 9.00; inhibition [11]: Active
COc1cc2c(c(OC)c1OC)-c1ccc(OC)c(=O)cc1[C@@H](NC(=O)CCCCl)CC2 |  | 5.33 | 
COc1cc2c(c(OC)c1OC)-c1ccc(SC)c(=O)cc1[C@@H](NC(=O)c1ccc(I)c(CO[N+](=O)[O-])c1)CC2 | 7.17 |  | 
COc1cc2c(c(OC)c1OC)-c1ccc(SC)c(=O)cc1[C@@H](NC(=O)c1cccc(CO[N+](=O)[O-])c1F)CC2 | 7.19 |  | 
COc1cc2c(c(OC)c1OC)-c1ccc(SC)c(=O)cc1[C@@H](NC(=O)c1cccc(CO[N+](=O)[O-])c1[N+](=O)[O-])CC2 | 8.05 |  | pIC50 [5]: 8.15
COc1cc2c(c(OC)c1OC)-c1ccc(SC)c(=O)cc1[C@@H](NC(=O)c1cc(CO[N+](=O)[O-])ccc1F)CC2 | 8.40 |  | 
COc1cc2c(c(OC)c1OC)-c1ccc(SC)c(=O)cc1[C@@H](NC(=O)c1ccc([N+](=O)[O-])c(CO[N+](=O)[O-])c1)CC2 | 7.26 |  | 
COc1cc2c(c(OC)c1OC)-c1ccc(SC)c(=O)cc1[C@@H](NC(=O)c1ccc(Cl)c(CO[N+](=O)[O-])c1)CC2 | 7.30 |  | CC50 [13]: 300000 nM; CC50 [14]: 300000 nM; CC50 [15]: 300000 nM; CC50 [16]: 300000 nM
COc1cc2c(c(OC)c1OC)-c1ccc(SC)c(=O)cc1[C@@H](NC(=O)c1ccc(C#N)c(CO[N+](=O)[O-])c1)CC2 | 7.31 |  | 
COc1cc2c(c(OC)c1OC)-c1ccc(SC)c(=O)cc1[C@@H](NC(=O)c1ccc(F)c(CO[N+](=O)[O-])c1)CC2 | 7.51 |  | 
COc1cc2c(c(OC)c1OC)-c1ccc(OC)c(=O)cc1[C@@H](NC(=O)c1cccc(CO[N+](=O)[O-])c1)CC2 |  | 6.60 | Ratio IC50 [12]: 25
COc1cc2c(c(OC)c1OC)-c1ccc(SC)c(=O)cc1[C@@H](NC(=O)c1cccc(CO[N+](=O)[O-])c1C#N)CC2 | 7.24 |  | 
COc1cc2c(c(OC)c1OC)-c1ccc(SC)c(=O)cc1[C@@H](NC(=O)c1ccc(-c3ccccc3)c(CO[N+](=O)[O-])c1)CC2 | 7.27 |  | 
COc1cc2c(c(OC)c1OC)-c1ccc(N(C)C)c(=O)cc1[C@@H](NC(=O)CCCO[N+](=O)[O-])CC2 |  | 5.18 | 
COc1cc2c(c(OC)c1OC)-c1ccc(SC)c(=O)cc1[C@@H](NC(=O)c1cccc(CO[N+](=O)[O-])c1Cl)CC2 | 8.10 |  | Survival [6]: 12.3 days; pIC50 [5]: 8.52
COc1cc2c(c(OC)c1OC)-c1ccc(SC)c(=O)cc1[C@@H](NC(=O)c1ccc(CO[N+](=O)[O-])cc1)CC2 |  | 7.70 | pIC50 [3]: 6.46; pIC50 [5]: 6.41
COc1cc2c(c(OC)c1OC)-c1ccc(OC)c(=O)cc1[C@@H](NC(=O)c1ccc(CCl)cc1)CC2 |  | 6.49 | Ratio IC50 [12]: 7
COc1cc2c(c(OC)c1OC)-c1ccc(SC)c(=O)cc1[C@@H](NC(=O)c1cc(CO[N+](=O)[O-])ccc1[N+](=O)[O-])CC2 | 7.14 |  | 
COc1cc2c(c(OC)c1OC)-c1ccc(SC)c(=O)cc1[C@@H](NC(=O)c1cccc(CO[N+](=O)[O-])c1-c1ccccc1)CC2 | 6.36 |  | 

Second part, led by results:

pIC50 [1] | pIC50 [2] | SMILES | other results
6.54 |  | COc1cc2c(c(OC)c1OC)-c1ccc(SC)c(=O)cc1[C@@H](NC(=O)c1cc(CO[N+](=O)[O-])ccc1C#N)CC2 | 
 | < 4.00 | COc1cc2c(c(OC)c1OC)-c1ccc(OC)c(=O)cc1[C@@H](N(C)C(=O)c1ccc(CO[N+](=O)[O-])cc1)CC2 | 
7.11 |  | COc1ccc(CO[N+](=O)[O-])cc1C(=O)N[C@H]1CCc2cc(OC)c(OC)c(OC)c2-c2ccc(SC)c(=O)cc21 | 
8.40 |  | COc1cc2c(c(OC)c1OC)-c1ccc(SC)c(=O)cc1[C@@H](NC(=O)c1cc(CO[N+](=O)[O-])ccc1Cl)CC2 | pIC50 [5]: 6.41
 | 5.46 | COc1cc2c(c(OC)c1OC)-c1ccc(OC)c(=O)cc1[C@@H](N(C)C(=O)CCCO[N+](=O)[O-])CC2 | 
6.15 |  | COc1cc2c(c(OC)c1OC)-c1ccc(SC)c(=O)cc1[C@@H](NC(=O)c1cccc(CO[N+](=O)[O-])c1OC)CC2 | 
 | 5.00 | COc1cc2c(c(OC)c1OC)-c1ccc(N(C)C)c(=O)cc1[C@@H](NC(=O)c1cccc(CO[N+](=O)[O-])c1)CC2 | 
 | 7.15 | COc1cc2c(c(OC)c1OC)-c1ccc(OC)c(=O)cc1[C@@H](NC(=O)c1ccc(CO[N+](=O)[O-])cc1)CC2 | Ratio IC50 [12]: 5
6.99 |  | COc1cc2c(c(OC)c1OC)-c1ccc(SC)c(=O)cc1[C@@H](NC(=O)c1cc(CO[N+](=O)[O-])ccc1I)CC2 | 
7.82 |  | COc1ccc(C(=O)N[C@H]2CCc3cc(OC)c(OC)c(OC)c3-c3ccc(SC)c(=O)cc32)cc1CO[N+](=O)[O-] | 
 | 5.60 | COc1cc2c(c(OC)c1OC)-c1ccc(N(C)C)c(=O)cc1[C@@H](NC(=O)c1ccc(CO[N+](=O)[O-])cc1)CC2 | 
 | < 4.00 | COc1cc2c(c(OC)c1OC)-c1ccc(OC)c(=O)cc1[C@@H](N(C)C(=O)c1cccc(CO[N+](=O)[O-])c1)CC2 | 
 | 5.20 | COc1cc2c(c(OC)c1OC)-c1ccc(OC)c(=O)cc1[C@@H](NC(=O)c1cccc(CCl)c1)CC2 | 
 | 8.00 | COc1cc2c(c(OC)c1OC)-c1ccc(OC)c(=O)cc1[C@@H](NC(=O)CCCO[N+](=O)[O-])CC2 | Ratio IC50 [12]: 470
7.05 |  | COc1cc2c(c(OC)c1OC)-c1ccc(SC)c(=O)cc1[C@@H](NC(=O)c1cc(CO[N+](=O)[O-])ccc1Br)CC2 | 
